Measurements published in article PMC4147338, “Host defense peptides for treatment of colorectal carcinoma – a comparative in vitro and in vivo analysis” (Oncotarget, 2014).

Tests used:
[1] = FRET spectroscopy probe dilution assay, membrane intercalation; assay type: binding; details: NBD-PE/rhodamine-PE, peptide 0.2-0.8 μM, 20 mM HEPES 150 mM NaCl pH 7.4, 37°C
Experimental: FRET spectroscopy served as a sensitive tool to detect lipid dependence of the membrane interaction of antimicrobial peptides. For this, all peptides were added to liposomes consisting of zwitterionic PC alone, of a mixture of PC and of negatively charged PS, as well as of pure PS (Figure 1). All lipid vesicles were doped with donor and acceptor dyes, peptides were added, and the emission intensities of both dyes were monitored over time. An increase of the fluorescence intensity of the donor (IDonor) and a simultaneous decrease of the fluorescence intensity of the acceptor dye (IAcceptor), i.e. a reduced FRET efficacy, indicated an increase in the overall mean distance between labeled phospholipids, and corresponded to an insertion of peptides into the lipid bilayer. For clarity, the IDonor/IAcceptor ratio is shown (Figure 1).
Figure 1 FRET spectroscopy. (A-C) Binding to and insertion of peptide C7A-D21K into phospholipid membranes (A) C7A-D21K was added at time point 50 s to liposomes (10 μM) consisting of pure PC, (B) a 90:10 molar mixture of PC:PS, and (C) of pure PS, each doubly doped with the fluorescently labeled FRET pair NBD-PE (donor) and rhodamine-PE (acceptor). Intercalation was monitored by measuring donor and acceptor fluorescence emission intensities. For better visualization only the quotient (IDonor/IAcceptor) is shown. Addition of the peptide solvent alone had no effect (dotted grey line). Peptide concentrations used: 0.2 μM (dotted black line, only in C), 0.4 μM (solid grey line, only in C), and 0.8 μM (solid black line). (D-F) Binding to and insertion of peptides at different concentrations into phospholipid membranes. (A) Peptides were added to liposomes consisting of pure PC, (B) a 90:10 molar mixture of PC:PS, and (C) of pure PS, each doubly doped with the fluorescently labeled phospholipid FRET pair NBD-PE (donor) and rhodamine-PE (acceptor). Intercalation was monitored by measuring donor and acceptor fluorescence intensities. The relative increase of the IDonor/IAcceptor ratio 250 s after peptide addition is shown (Increase of IDonor/IAcceptor (%) = (IDonor/IAcceptor (peptide) - IDonor/IAcceptor (control))*100). Peptide concentrations used: 0.2 μM (open bars), 0.4 μM (grey bars), and 0.8 μM (black bars).
Intercalation of peptides into liposome membranes was determined by FRET spectroscopy applied as a probe dilution assay. Liposomes were prepared by dissolving appropriate lipid mixtures (pure PC, a 90:10 molar mixture of PC:PS, as well as pure PS, each doped with 1% of the donor dye NBD-PE and 1% of the acceptor dye rhodamine-PE) in chloroform and drying them under a gentle stream of nitrogen. The resulting lipid film was dispersed in 20 mM HEPES, 150 mM NaCl, pH 7.4, sonicated for 30 min and subjected to 3-4 temperature cycles from 4 to 60°C with an incubation period of 30 min at each step. Lipid dispersions were stored at 4°C overnight before use. For the assay, donor fluorescence (NBD) was excited at 470 nm, and donor (NBD, ID at 531 nm) as well as acceptor (rhodamine, IA at 593 nm) emission intensities were monitored over time. An increase of the ratio of the donor fluorescence intensity to that of the acceptor fluorescence intensity (IDonor/I^Acceptor) was interpreted as a membrane intercalation event. This ratio depends on the Förster efficiency, therefore a rising value means that the mean distance separation of donor and acceptor dyes is raising. The assay was performed at 37°C.

HROC24 xenografts = test: HROC24 xenograft, repetitive local peptide injection; assay type: in vivo, NMRI Foxn1nu mice; details: for Tumor growth inhibition in words / Tumors macroscopically breaking up / ulceration / Tumor size, x-fold increase vs. day 0 (Vt/V0): 1 mg/kg bw local injection every third day, 9 injections, n=5; for Tumor size, x-fold increase vs. day 0 (Vt/V0): PBS control: 10.3-fold; for Tumor cell apoptosis, M30 CytoDeath staining (cytokeratin 18 cleavage): immunofluorescence of cryopreserved tumor sections
Experimental: Figure 7 In vivo growth kinetics and tumor cell apoptosis of HROC24 tumors in NMRI Foxn1mice with or without local treatment (A) Therapy was performed by repetitive local application of HDPs C7A or C7A-D21K (1 mg/kg bw) every third day (a total of 9 injections) (n=5 per group). Tumor-carrying control animals received either equivalent volumes of peptide NK11 or saline (n=5 per group). Tumor volumes are given as x-fold increase vs. day 0 (Vt/V0) (start of treatment) ± SD. *p<0.05 vs. PBS. (B) Representative immunofluorescence staining of apoptotic cells within HROC24 tumors. Cryopreserved tumor sections were stained with anti-M30 CytoDeath antibody, followed by anti-mouse IgG FITC antibody and nuclear DAPI as described in material and methods.
Experiments were performed on female 8–10-week old NMRI Foxn1^nu mice (Charles River, Sulzfeld, Germany) weighting 18-20 g. All animals were fed standard laboratory chow and given free access to water. Trials were performed in accordance with the German legislation on protection of animals and the Guide for the Care and Use of Laboratory Animals (Institute of Laboratory Animal Resources, National Research Council; NIH Guide, vol.25, no.28, 1996). NMRI Foxn1^nu mice were challenged with 5 × 10^6 HROC24 cells. Mice with established subcutaneous (s.c.) tumors received repetitive local injections of peptide C7A or C7A-D21K (1mg/kg bw, dissolved in 50 μl) every third day (a total of 9 injections) (n=5 per group). As control, tumor-carrying mice either received NK11 (1mg/kg bw, dissolved in 50 μl) or saline (50μl volume, n=5 per group). Tumor growth was controlled three times a week at time point of HDP injection and tumor volume was estimated according to the formula: V= width² * length * 0.52.
Tumor carrying mice were sacrificed at day 28 or when they became moribund before the tumor volume reached 2.000 mm³. At the end of each experiment, tumors, blood and spleens were collected from the animals of all groups for further analysis.
To study apoptotic cell death in vivo, 4 μm sections of HDP-treated and control tumors were mounted on poly-L-lysine-coated-slides. Following fixation in ice-cold methanol and blocking with 2% BSA (1h), cells were incubated with mouse anti-M30 CytoDeath antibody according to the manufacturer's instructions (Roche, Mannheim, Germany). A FITC-labeled anti-mouse IgG antibody was used as secondary antibody (Dako Envision Link, Hamburg, Germany). Cell nuclei were stained with DAPI and slides were embedded in mounting medium (Dako). Apoptotic cells were detected using a fluorescence microscope (Olympus, Münster, Germany).

Sequence | Membrane intercalation (increase of IDonor/IAcceptor) ([1]; PC:PS 90:10 liposomes 10 μM) | Membrane intercalation (increase of IDonor/IAcceptor) ([1]; pure PS liposomes 10 μM) | Tumor growth inhibition in words (HROC24 xenografts) | Tumors macroscopically breaking up / ulceration (HROC24 xenografts) | Tumor size, x-fold increase vs. day 0 (Vt/V0) (HROC24 xenografts) [fold] | Tumor cell apoptosis, M30 CytoDeath staining (cytokeratin 18 cleavage) (HROC24 xenografts) | Membrane intercalation (increase of IDonor/IAcceptor) ([1]; pure PC liposomes 10 μM)
KILRGVAKKIMRTFLRRISKKILTGKK [Peptide C7A-D21K, C7A with Asp21 substituted by Lys] | slightly impaired | pronounced | strong growth retardation | no ulceration was observed | 3.4 | most strongly induced | 
KISKRILTGKK [NK11, non-toxic control peptide based on NK-2, reference compound] | negligible | visible | induced tumor growth retardation as well |  | 4 | elevated cytokeratin 18 cleavage | negligible
KILRGVAKKIMRTFLRRISKDILTGKK [Peptide C7A, NK-2 derivative, Cys7 replaced with Ala] | slightly impaired | pronounced | most effectiveness | 4/5 |  | most strongly induced | 
